Data as given in patent US20100068204A1, “4-ARYLOXYQUINOLIN-2(1H)-ONES AS MTOR KINASE AND PI3 KINASE INHIBITORS, FOR USE AS ANTI-CANCER AGENTS” (Wyeth, priority 2008, published 2010).

Key:
PI3Kα = PI3Kα (Homo sapiens, UniProt P42336); experiment: PI3Kα fluorescence polarization assay; format: biochemical; conditions: 20 μM PIP2, 25 μM ATP
How it was run: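 Kinase reaction in 20 mM HEPES pH 7.5, 2 mM MgCl2, 0.05% CHAPS with final 20 μM diC8-PIP2 and 25 μM ATP, 30-60 min at room temperature. Stopped with 10 nM TAMRA-labelled probe plus 2.5 uM GST-murine GRP; fluorescence polarization read after 90-110 minutes.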

[1] = tested on: LNCap prostate tumor cells; experiment: In vitro cell growth assay (MTS), LNCap; format: cell-based, human; conditions: three days after drug treatment
How it was run: (§1)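 Tumor cells plated ~3000/well; inhibitors in DMSO added one day later (final DMSO 0.25%). After three days of treatment, viable cell density read by MTS conversion, absorbance at 490 nm. Effect expressed relative to untreated control growth.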

human TOR (FLAG-TOR) = human TOR (FLAG-TOR) (Homo sapiens, UniProt P42345); experiment: mTOR enzyme assay (DELFIA format, purified enzyme); format: biochemical; conditions: 800 ng/ml FLAG-TOR, 100 μM ATP, 1.25 μM His6-S6K; read-out: mTOR Kinase IC50
[2] = tested on: MDA468 breast tumor cells; experiment: In vitro cell growth assay (MTS), MDA468; format: cell-based, human; conditions: three days after drug treatment
How it was run: as §1

Chain of PI3Kα (P42336 whole entry, species assumed): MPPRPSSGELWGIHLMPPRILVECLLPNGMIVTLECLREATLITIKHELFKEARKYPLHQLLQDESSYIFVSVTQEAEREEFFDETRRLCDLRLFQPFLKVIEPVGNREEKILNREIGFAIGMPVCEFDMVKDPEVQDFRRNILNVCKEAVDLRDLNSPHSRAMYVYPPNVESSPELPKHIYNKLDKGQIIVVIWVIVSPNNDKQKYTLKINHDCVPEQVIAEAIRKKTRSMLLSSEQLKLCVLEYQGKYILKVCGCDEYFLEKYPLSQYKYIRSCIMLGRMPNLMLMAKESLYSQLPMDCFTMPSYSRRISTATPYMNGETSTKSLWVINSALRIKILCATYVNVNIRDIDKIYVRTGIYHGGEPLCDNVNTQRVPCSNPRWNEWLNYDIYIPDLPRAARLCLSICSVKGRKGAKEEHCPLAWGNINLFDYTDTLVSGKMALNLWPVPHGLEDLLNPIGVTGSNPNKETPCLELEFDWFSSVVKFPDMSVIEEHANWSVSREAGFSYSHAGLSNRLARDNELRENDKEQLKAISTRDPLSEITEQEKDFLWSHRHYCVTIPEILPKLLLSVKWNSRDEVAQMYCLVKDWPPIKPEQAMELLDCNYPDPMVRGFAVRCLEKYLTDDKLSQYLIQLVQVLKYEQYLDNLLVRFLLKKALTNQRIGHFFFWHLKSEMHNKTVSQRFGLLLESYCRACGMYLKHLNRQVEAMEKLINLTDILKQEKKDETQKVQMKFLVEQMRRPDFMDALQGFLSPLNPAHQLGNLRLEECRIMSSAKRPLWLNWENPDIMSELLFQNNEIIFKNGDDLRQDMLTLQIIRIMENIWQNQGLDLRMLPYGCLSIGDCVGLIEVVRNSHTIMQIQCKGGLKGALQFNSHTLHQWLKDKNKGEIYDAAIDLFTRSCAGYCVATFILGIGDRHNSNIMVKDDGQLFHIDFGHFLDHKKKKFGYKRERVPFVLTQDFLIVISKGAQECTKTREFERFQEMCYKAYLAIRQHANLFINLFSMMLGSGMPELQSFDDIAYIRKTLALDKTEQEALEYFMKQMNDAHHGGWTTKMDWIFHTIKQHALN
Chain of PI3Kα (P27986 whole entry partner, species assumed): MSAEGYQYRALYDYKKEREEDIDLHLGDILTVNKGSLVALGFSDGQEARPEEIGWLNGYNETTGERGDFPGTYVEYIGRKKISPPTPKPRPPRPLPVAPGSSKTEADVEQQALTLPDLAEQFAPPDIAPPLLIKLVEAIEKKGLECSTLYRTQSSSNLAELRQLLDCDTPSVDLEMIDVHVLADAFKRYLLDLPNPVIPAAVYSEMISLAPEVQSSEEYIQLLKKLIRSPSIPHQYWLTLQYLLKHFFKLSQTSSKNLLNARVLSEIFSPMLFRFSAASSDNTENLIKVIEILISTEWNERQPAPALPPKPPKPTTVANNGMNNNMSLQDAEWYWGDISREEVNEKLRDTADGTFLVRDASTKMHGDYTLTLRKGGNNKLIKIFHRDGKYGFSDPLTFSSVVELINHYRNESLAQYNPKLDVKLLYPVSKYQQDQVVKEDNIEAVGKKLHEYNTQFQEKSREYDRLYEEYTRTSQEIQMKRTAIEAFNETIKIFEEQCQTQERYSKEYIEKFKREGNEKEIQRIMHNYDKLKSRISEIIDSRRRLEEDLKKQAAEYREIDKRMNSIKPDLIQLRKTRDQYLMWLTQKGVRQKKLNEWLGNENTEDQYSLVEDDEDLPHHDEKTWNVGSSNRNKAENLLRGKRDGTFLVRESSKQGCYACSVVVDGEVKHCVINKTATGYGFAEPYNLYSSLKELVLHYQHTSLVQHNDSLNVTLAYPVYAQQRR

IC50 (PI3Kα) | IC50 ([1]; Homo sapiens, LNCaP, 72 h) | IC50 (human TOR (FLAG-TOR)) | IC50 ([2]; Homo sapiens, 72 h) | IC50 [1] | IC50 [2] | Structure (SMILES)
0.736 µM |  | 240 nM |  | 7.5 µM | 20 µM | Cc1cccc(Oc2cc(=O)[nH]c3ccccc23)c1 [drawing 249]
> 10 µM | > 60 µM | 740 nM | 18 µM |  |  | O=c1cc(Oc2ccc(I)cc2)c2ccccc2[nH]1
8.69 µM | > 60 µM | 1350 nM | > 60 µM |  |  | O=c1cc(Oc2cccc(C(F)(F)F)c2)c2ccccc2[nH]1
> 10 µM | 12 µM | 3950 nM | 35 µM |  |  | NCc1ccc(Oc2cc(=O)[nH]c3ccccc23)cc1
> 10 µM | > 60 µM | 2250 nM | > 60 µM |  |  | O=c1cc(Oc2cccc([N+](=O)[O-])c2)c2ccccc2[nH]1
> 10 µM |  | 500 nM | 40 µM | 60 µM |  | Cc1cccc(Oc2cc(=O)[nH]c3ccccc23)c1 [drawing 313]
> 10 µM | > 60 µM | 230 nM | > 60 µM |  |  | O=c1cc(Oc2cccc3ccccc23)c2ccccc2[nH]1
2.31 µM | > 60 µM | > 20000 nM | > 60 µM |  |  | O=c1cc(Oc2ccc(C(F)(F)F)cc2)c2ccccc2[nH]1
6.95 µM | > 60 µM | 1850 nM | > 60 µM |  |  | Cc1n[nH]c(C)c1-c1ccc(Oc2cc(=O)[nH]c3ccccc23)cc1
1.66 µM | 13 µM | 1850 nM | > 60 µM |  |  | CC(=O)c1ccc(Oc2cc(=O)[nH]c3ccccc23)cc1
2.22 µM | 7.5 µM | 160 nM | 27 µM |  |  | Nc1ccc(Oc2cc(=O)[nH]c3ccccc23)cc1
2.48 µM | > 60 µM | 960 nM | 49 µM |  |  | O=c1cc(Oc2ccc(Cl)cc2)c2ccccc2[nH]1
> 10 µM | 5.5 µM | 1040 nM | > 60 µM |  |  | O=c1cc(Oc2ccc(OC(F)F)cc2)c2ccccc2[nH]1
0.938 µM | > 60 µM | > 20000 nM | > 60 µM |  |  | O=c1cc(Oc2ccc(-c3ccccc3)cc2)c2ccccc2[nH]1

The remaining lines, values behind:

Structure (SMILES) | IC50 (PI3Kα) | IC50 ([1]; Homo sapiens, LNCaP, 72 h) | IC50 (human TOR (FLAG-TOR)) | IC50 ([2]; Homo sapiens, 72 h) | IC50 [1] | IC50 [2]
O=c1cc(Oc2cccc(-c3ccc(NCc4cccnc4)cc3)c2)c2ccccc2[nH]1 | 7 µM | > 60 µM | 1300 nM | > 60 µM |  | 
O=c1cc(Oc2ccccc2)c2cc(-c3cc[nH]n3)ccc2[nH]1 | 1.02 µM | > 60 µM | 11500 nM | 40 µM |  | 
CN(C)CCNC(=O)Nc1ccc(-c2cccc(Oc3cc(=O)[nH]c4ccccc34)c2)cc1 | > 10 µM | 7 µM | 100 nM | 9 µM |  | 
CC(C)(C)OC(=O)N1CC=C(c2cccc(Oc3cc(=O)[nH]c4ccccc34)c2)CC1 | 9.5 µM | 13 µM | 650 nM | 32 µM |  | 
Cn1cc(CN(Cc2ccn(C)n2)c2cccc(Oc3cc(=O)[nH]c4ccccc34)c2)cn1 | 4.62 µM | 3 µM | 230 nM | 3 µM |  | 
O=c1cc(Oc2ccc(-c3ccc(NCCN4CCOCC4)nc3)cc2)c2ccccc2[nH]1 | > 10 µM | 1.05 µM | 1080 nM | 8 µM |  | 
O=c1cc(Oc2cccc(NCc3ccco3)c2)c2ccccc2[nH]1 | 4.65 µM | 3.4 µM | 130 nM | 13 µM |  | 
CN1CCC(Nc2ccc(-c3cccc(Oc4cc(=O)[nH]c5ccccc45)c3)cc2)CC1 | 8 µM | 2.8 µM | 50 nM | 5 µM |  | 
Nc1ccncc1CNc1cccc(Oc2cc(=O)[nH]c3ccccc23)c1 | > 10 µM | 8 µM | 150 nM | 11.5 µM |  | 
O=C(NCCN1CCOCC1)Nc1ccc(-c2cccc(Oc3cc(=O)[nH]c4ccccc34)c2)cc1 | > 10 µM | 7 µM | 220 nM | 25 µM |  | 
O=c1cc(Oc2cccc(-c3ccoc3)c2)c2ccccc2[nH]1 | 4.32 µM | 6.2 µM | 350 nM | 0.3 µM |  | 
CN(C)C/C=C/C(=O)Nc1cccc(-c2cccc(Oc3cc(=O)[nH]c4ccccc34)c2)c1 | 12 µM | 4 µM | 140 nM | 8 µM |  | 
Cn1cc(-c2ccc3c(Oc4ccccc4)cc(=O)[nH]c3c2)cn1 | 4.63 µM | > 60 µM | > 20000 nM | > 60 µM |  | 
O=c1cc(Oc2cccc(NCCc3cccnc3)c2)c2ccccc2[nH]1 | > 10 µM | 4 µM | 120 nM | 11.5 µM |  | 
CN(C)CC(=O)Nc1ccc2[nH]c(=O)cc(Oc3ccccc3)c2c1 | > 10 µM | > 60 µM | > 20000 nM | > 60 µM |  | 
O=c1cc(Oc2cccc(-c3ccc(N4CCOCC4)cc3)c2)c2ccccc2[nH]1 | 10.4 µM | 13 µM | 490 nM | 35 µM |  | 
O=c1cc(Oc2cccc(NCc3ccccn3)c2)c2ccccc2[nH]1 | 3.49 µM | 5.8 µM | 150 nM | 12 µM |  | 
CS(=O)(=O)Nc1cccc(-c2cccc(Oc3cc(=O)[nH]c4ccccc34)c2)c1 | 3.55 µM | 6.5 µM | 580 nM | 18 µM |  | 
COc1ccc(CNc2cccc(Oc3cc(=O)[nH]c4ccccc34)c2)cn1 | 4.07 µM | 4.1 µM | 310 nM | 12 µM |  | 
O=c1cc(Oc2cccc(N3CCOCC3)c2)c2ccccc2[nH]1 | > 10 µM | 9 µM | 430 nM | 60 µM |  | 
Nc1ccc(-c2ccc3[nH]c(=O)cc(Oc4ccccc4)c3c2)cc1 | 6.54 µM | 18 µM | > 20000 nM | 60 µM |  | 
Cn1cc(CNc2cccc(Oc3cc(=O)[nH]c4ccccc34)c2)cn1 | 4.79 µM | 4 µM | 170 nM | 8.8 µM |  | 
O=c1cc(Oc2cccc(-c3ccc(NC4CCN(Cc5ccncc5)CC4)cc3)c2)c2ccccc2[nH]1 | > 10 µM | 6.7 µM | 120 nM | 13 µM |  | 
CC(Nc1cccc(Oc2cc(=O)[nH]c3ccccc23)c1)c1cccnc1 (stereo not drawn) | 3.58 µM | 3.3 µM | 190 nM | 11 µM |  | 
CC(C)OC(=O)Nc1ccc(-c2cccc(Oc3cc(=O)[nH]c4ccccc34)c2)cc1 | > 10 µM | 4 µM | 1350 nM | 5 µM |  | 
CC(C)(C)OC(=O)N1CCN(c2ccc(-c3cccc(Oc4cc(=O)[nH]c5ccccc45)c3)cn2)CC1 | > 10 µM | > 60 µM | 3700 nM | 18 µM |  | 
O=c1cc(Oc2cccc(NCc3cccnc3)c2)c2ccccc2[nH]1 | > 10 µM | 3.2 µM | 80 nM | 9.77 µM |  | 
O=c1cc(Oc2cccc(NCc3ccccc3N3CCOCC3)c2)c2ccccc2[nH]1 | 5.62 µM | 9 µM | 330 nM | 24 µM |  | 
